One molecule from paper PMC3568987 (ACS medicinal chemistry letters, 2012) can be followed below.

Molecules are shown by their SMILES.

The subject of one data set is rat hepatocytes. Put plainly: Hepatocyte intrinsic clearance. It counts as in vitro ADME.
The next data set relates to human hepatocytes. Put plainly: Hepatocyte intrinsic clearance. It counts as in vitro ADME.

For `CC#Cc1cncc(-c2cc(Cl)c([C@]3(C)CC(=O)N(C)C(=N)N3)s2)c1` [Compound 16], the results for the intrinsic clearance in the data set with rat hepatocytes and in the data set on human hepatocytes were 4.9 μL.min^−1 ·10^6 cells and 2.7 μL.min^−1 ·10^6 cells, respectively.
